Legend:
Assay type in all cases: cell-based
[1] = target: T1, Two Pore Channel 2 (TPC2), R210C (Homo sapiens, UniProt Q8NHX9, R210C); test: whole-endolysosome patch clamp, HEK293 vacuoles, […]
T1 construct: gene TPCN2; EGFP-TPC2 R210C

[2] = target: T2, Two Pore Channel 2 (TPC2), R210C (Homo sapiens, UniProt Q8NHX9, L11A/L12A/R210C); test: inside-out patch clamp, HEK293, concentration response
T2 construct: gene TPCN2; EGFP-tagged plasma membrane-targeted TPC2 L11A/L12A

[3] = target: T3, Two Pore Channel 2 (TPC2), R210A (Homo sapiens, UniProt Q8NHX9, R210A); test: channel activation EC50 (n = […], data not shown in figures)
T3 construct: gene TPCN2
T3 sequence (Q8NHX9 whole entry R210A): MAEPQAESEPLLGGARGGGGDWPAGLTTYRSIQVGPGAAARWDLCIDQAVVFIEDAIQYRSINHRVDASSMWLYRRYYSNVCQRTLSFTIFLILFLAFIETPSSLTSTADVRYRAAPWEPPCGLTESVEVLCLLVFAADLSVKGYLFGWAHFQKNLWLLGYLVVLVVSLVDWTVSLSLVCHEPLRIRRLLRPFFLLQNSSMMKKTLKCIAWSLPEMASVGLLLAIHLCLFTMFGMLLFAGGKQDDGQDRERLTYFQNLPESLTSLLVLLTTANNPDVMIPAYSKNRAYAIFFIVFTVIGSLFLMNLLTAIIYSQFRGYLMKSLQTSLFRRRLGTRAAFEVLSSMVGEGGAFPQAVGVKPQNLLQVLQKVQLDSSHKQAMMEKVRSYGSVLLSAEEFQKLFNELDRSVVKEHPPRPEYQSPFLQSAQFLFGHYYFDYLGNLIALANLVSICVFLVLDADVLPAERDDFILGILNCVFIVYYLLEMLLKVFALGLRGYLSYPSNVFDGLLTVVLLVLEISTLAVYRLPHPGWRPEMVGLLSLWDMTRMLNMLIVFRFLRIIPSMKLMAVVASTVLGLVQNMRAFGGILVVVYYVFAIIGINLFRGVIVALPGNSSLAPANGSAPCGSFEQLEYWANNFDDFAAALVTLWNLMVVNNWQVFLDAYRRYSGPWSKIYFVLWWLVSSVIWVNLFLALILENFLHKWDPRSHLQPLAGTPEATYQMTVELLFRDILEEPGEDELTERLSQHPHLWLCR

[4] = target: T4, Two Pore Channel 2 (TPC2) (Homo sapiens, UniProt Q8NHX9, L11A/L12A); test: inside-out patch clamp, HEK293, concentration response
T4 construct: gene TPCN2; EGFP-tagged plasma membrane-targeted TPC2 L11A/L12A
T4 sequence (Q8NHX9 whole entry L11A/L12A): as the sequence (Q8NHX9 whole entry R210A) above, with L11A, L12A, A210R counted along it

T2 sequence (Q8NHX9 whole entry L11A/L12A/R210C): as the sequence (Q8NHX9 whole entry R210A) above, with L11A, L12A, A210C counted along it
T1 sequence (Q8NHX9 whole entry R210C): as the sequence (Q8NHX9 whole entry R210A) above, with A210C counted along it

## COc1ccc([C@H]2N[C@H](C(=O)O)Cc3c2[nH]c2ccccc32)cc1CN1CCN(c2ccccc2F)CC1 [Ned-19]
[1]
  whole-endolysosome patch clamp, HEK293 vacuoles, 100 nM: Ned-19 inhibited the R210C currents at both potentials with fast kinetics

## CCCCCCCC(=O)OC[C@H](COP(=O)(O)O[C@@H]1[C@H](O)[C@H](OP(=O)(O)O)[C@@H](O)[C@H](OP(=O)(O)O)[C@H]1O)OC(=O)CCCCCCC [PI(3,5)P2-diC8]
[2]
  EC50: 0.00227 ± 0.00025 µM
[3]
  EC50: 0.0194 ± 0.00074 µM
[4]
  EC50: 0.209 ± 0.0192 µM

Reference: publication PMC9840614, “A gain-of-function TPC2 variant R210C increases affinity to PI(3,5)P2 and causes lysosome acidification and hypopigmentation” (Nature Communications, 2023)
